Measured values as given in article PMC5554537 (Frontiers in Pharmacology, 2017).

Tests used:
SiHa cells = assay: Oxygen consumption rate, Seahorse XFe96 analyser; type: cell-based, human; settings: 200 µM, mitochondrial stress test
Method: (OCR) of the human cervical carcinoma cell line SiHa and a previously described (Guise et al., 2007) POR-overexpressing transfectant SiHa/POR, determined using a Seahorse XFe96 Analyser (Agilent). Cells were passaged in αMEM plus 5% FCS, with 1 µM puromycin to maintain POR expression in the SiHa/POR cell line. Cells were ty pically seeded at 4×10^4 cells/well in Seahorse 96 well plates (without puromycin) and ~ 18 hr later the medium was changed to Seahorse medium with 10 mM glucose and 2 mM glutamine (SMGG) adjusted to pH 7.35 (150 µl/well). Plates were degassed to remove CO2, and inhibitors were added serially using the Seahorse injectors (25 µl/injection) with rotenone (final concentration 0.5 µM) typically added at the start of the 30 min equilibration in the flux analyser. OCR was monitored for three 3 min periods following each drug addition. […]
injection 1 and at each subsequent injection to maintain concentrations at 200 µM continuously during the test. The control received equivalent injections of SMGG without drugs. In all cases (including controls), injection 2 added oligomycin to give 0.5 µM, injection 3 added carbonyl cyanide […] (FCCP) to 0.5 µM, and injection 4 added rotenone and antimy cin to 1 µM each. V alues are means and errors are standard deviations, for 6 replicate cultures. […]
suppressed by M14, both in the presence (injection 1) and absence (injection 4) of respiratory […]
presence or absence of 0.5 µM rotenone when SN30000 is added cumulatively to give the indicated concentrations. Values are means and SEM for 5 replicate cultures. The fall in OCR after transient stimulation at each addition of SN30000 is consistent with the pattern for CHO/POR cells in Supplementary Fig. 4A.
C: Concentration dependence of increases in OCR by SiHa/POR cells, measured at the first […]
effects noted above. Left panel: SN30000. Right panel: TPZ. Values are means and errors are […]

CHO/POR cells = assay: Redox cycling: non-respiratory O2 consumption and H2O2 generation; type: cell-based; settings: rotenone-inhibited aerobic CHO/POR cells, cumulative addition
Method: (§1) The Chinese hamster ovary cell line 51D1.3 (herein called CHO) and a stable transfectant expressing a soluble form of human P450 oxidoreductase (51D1.3/sPOR, herein called CHO/POR) ([Gu et al., 2009]), were grown in spinner flasks in αMEM plus 5% fetal bovine serum. Late log phase cultures were harvested by centrifugation, resuspended at 5 × 10^5 cells/mL in phenol red-free high-glucose DMEM (Invitrogen) supplemented with 4 mM Glutamax-1, 1 mM sodium pyruvate and 5% FBS. Stirred cell suspensions (2 mL) were transferred to an OXYBOROS O2K oxygraph for simultaneous polarographic measurement of non-respiratory O2 consumption and fluorimetric measurement of H2O2 generation as previously ([Hunter et al., 2012]). Bovine liver superoxide dismutase (10 U), horseradish peroxidase (10 U), Amplex UltraRed (50 nmol) and rotenone (1 nmol), all from Molecular Probes Invitrogen (Eugene, OR), were injected and cumulative drug additions (from saline stock solutions) were made every ∼5 min once endogenous rates had stabilized. Signals were recorded every 2 s, and flux derivatives were estimated ∼2 min after each addition using a Savitzky–Golay smoothing filter (40 data point window) in DATLAB version 4.3.
(§2) Supplementary Figure 4. Time-dependent changes in oxy gen consu mption and H2O2 formation rates induced by SN30000 in rotenone-inhibited CHO/POR cell suspensions, monitored with an OXYBOROS O2K oxygraph. Conditions of the experiment were identical to Fig. 5 except that SN30000 was added as a single bolus to separate cell suspension, rather than by cu mulative addition. A: Representative traces for oxygen consu mption and H2O2 formation rates for a single culture when SN30000 was added to a final concentration of 600 µM, at 4 min. Peak rates were established within 2 min, followed by a decline to a new steady state at approximately 1/3rd of the maximu m rate. Cell viability was > 97% by try pan […]
(§3) killing. […]

NIH-III mice = assay: Mouse toxicity: MTD, survival and body weight loss after single i.p. doses; type: in vivo; settings: for Survival: 14 days
Excerpt: (§4) Mouse toxicity SN30000 and metabolites M14 and M18: survival and body weight loss following single i.p. doses to NIH-III mice.
(§5) Cmpd Dose Body weight nadir Body weight nadir
(§6) (µmol/kg) Survivala Survivala
(§7) Day Weight loss (%)b Day Weight loss (%)b […]
(§8) a Survival reported as a fraction of total nu mber of animal treated at a giv en dose, with an observation time of 14 days. Deaths were predominantly due to humane ter mination because of persistent clinical signs or body weight loss > 15% of pretreatment values. b Body weig ht loss at nadir, relative to pre-treatment values. Values are mean and errors are […]
(§9) c Data from Gu et al., 2014 d Mouse died <24 hr after dosing.

[1] = as above; type: in vivo, NIH-III mice; settings: mouse, in vivo, ip, NIH-III mice; for MTD at 14 days: both sexes, single i.p. dose
Excerpt: as §4, §5, §6, §7, §8, §9

Urinary excretion = type: in vivo, NIH-III mice; settings: for Urinary excretion, % of administered dose: 24 h
Method: Mice (20–25 g body weight) were dosed i.p. or by slow bolus (10–20 s) i.v. injection via a lateral tail vein, with co-administration of ^3H-mannitol (0.025 μmol/kg; 67 MBq/g) in some studies as a marker of renal function. For evaluation of acute toxicity, mice were observed continuously for 3 h after dosing, and their activity rated on a lethargy score from 0 representing no change in activity to 5 representing animals that were moribund and required culling. For MTD studies, the animals were checked daily for clinical signs of toxicity and body weight change for 2 weeks. In some studies rectal temperature changes after dosing were measured using a BAT-12 digital microprobe thermometer (Physitemp Instruments, Clifton, NJ, United States) at the times specified in the figures. Blood samples were collected from mice at various times by cardiac puncture, seconds after cervical dislocation, into ice-cold tubes containing K2EDTA. These were placed on ice immediately after collection and centrifuged (3,000 g, 3 min) within 10 min to harvest plasma. Plasma and tissues were rapidly frozen in liquid nitrogen before storage at -80°C for subsequent bioanalysis. Urine samples were collected from mice housed individually in metabolic cages (Minor Metabowl, Jencons, United Kingdom; one animal per cage) with continuous access to food and water.

[2] = Redox cycling: non-respiratory O2 consumption and H2O2 generation; type: cell-based; settings: Chinese hamster; CHO/POR cells, 600 µM single bolus; read-out: Cell viability by trypan blue at end of exposure
Method: as §1, §2, §3

Wistar rats = assay: Rectal temperature and MTD in rats; type: in vivo; settings: single i.v. dose of 90 mg/kg, preliminary
[3] = Rectal temperature and MTD in rats; type: in vivo; settings: rat, in vivo, iv; Wistar rats, single i.v. dose

For `[O-][n+]1nc(CCCN2CCOCC2)nc2cc3c(cc21)CCC3` [M14], the “Effect on oxygen consumption rate (OCR)” value (SiHa cells) was “suppressed”, the “Non-respiratory O2 consumption and H2O2 generation (redox cycling)” value (CHO/POR cells) was “much lower rates than for SN30000” and the “Body weight nadir, Day” value (NIH-III mice; female, 562 µmol/kg i.p.) was 3. For the same compound, the “Body weight nadir, Weight loss” value (NIH-III mice; female, 562 µmol/kg i.p.) was 2.6 ± 0.4%, the Survival (NIH-III mice; female, 562 µmol/kg i.p.) was 3/3 and the Survival (NIH-III mice; female, 750 µmol/kg i.p.) was 0/1. For the same compound, the “Body weight nadir, Day” value (NIH-III mice; male, 562 µmol/kg i.p.) was 1, the “Body weight nadir, Weight loss” value (NIH-III mice; male, 562 µmol/kg i.p.) was 0.7 ± 0.5% and the Survival (NIH-III mice; male, 562 µmol/kg i.p.) was 3/3. For the same compound, the Survival (NIH-III mice; male, 750 µmol/kg i.p.) was 0/2, the “Body weight nadir, Day” value (NIH-III mice; male, 1000 µmol/kg i.p.) was 1 and the “Body weight nadir, Weight loss” value (NIH-III mice; male, 1000 µmol/kg i.p.) was 2.0%. The Survival (NIH-III mice; male, 1000 µmol/kg i.p.) was 1/1, the MTD at 14 days [1] was 562 µmol/kg and the MTD at 14 days ([1]; equivalent to 562 μmol/kg) was 177 mg/kg. It also gave an MTD at 2 weeks ([1]; as stated for the temperature study (Figure 4)) of 135 mg/kg.

In the case of `O=C(O)CCc1nc2cc3c(cc2[n+]([O-])n1)CCC3` [M18], the “Body weight nadir, Weight loss” value (NIH-III mice; female, 562 µmol/kg i.p.) is reported as “No decrease in body weight” and the Survival (NIH-III mice; female, 562 µmol/kg i.p.) is reported as 3/3.

In the case of `[O-][n+]1nc(CCCN2CCOCC2)[n+]([O-])c2cc3c(cc21)CCC3` [SN30000, 3-(3-Morpholinopropyl)-7,8-dihydro-6H-indeno[5,6-e][1,2,4]triazine 1,4-dioxide], the “Effect on oxygen consumption rate (OCR)” value (SiHa cells) is reported as “increased”, the “Urinary excretion, % of administered dose” value (Urinary excretion; 18.6 mg/kg i.p.) is reported as 3.38 ± 0.03% and the “Urinary excretion, % of administered dose” value (Urinary excretion; 186 mg/kg i.p.) is reported as 5.64 ± 0.02%. The “Urinary excretion, % of injected dose” value (Urinary excretion; by 24 h, dose not stated) was roughly 5%, the “Non-respiratory O2 consumption and H2O2 generation (redox cycling)” value (CHO/POR cells) was “strongly stimulated O2 consumption and H2O2 formation” and the viability at 600 µM [2] was greater than 97%. The “Decrease in rectal temperature” value (Wistar rats) was roughly 2.5 °C, the MTD [3] was 90 mg/kg and the MTD at 14 days [1] was 562 µmol/kg. For the same compound, the MTD at 14 days ([1]; equivalent to 562 μmol/kg) was 186 mg/kg.
